Laboratory results: paper PMC12040169 (PLOS Biology, 2025)

Assay: in vitro
Details: human, hela cells, % viability

SMILES | viability at 28.5 h, 10 µM | viability at 28.5 h, 10 µM (bulk resorufin, single well)
COc1ccc(-c2nnn(C3CCNCC3)n2)cc1OC [CBK269870C] | 85.3% | 
CC1CN(Cc2nc3c(c(=O)[nH]c(=O)n3C)n2CCc2ccccc2)CC(C)O1 (centres unmarked) [CBK269876] | 98.1% | 
COc1cc(CNCc2ccccn2)ccc1OCc1cccc(Cl)c1 [CBK269877C] | 94.7% | 
O=C(O)COc1ccc(S(=O)(=O)N2CCc3ccccc32)cc1 [CBK269882] | 102% | 
COc1ccc(-c2ccc(C#N)c(SCc3ccncc3)n2)cc1 [CBK269883] | 102% | 
COCC(=O)NC(C)c1nc2ccccc2n1Cc1ccccc1C (centres unmarked) [CBK269885] | 88.1% | 
O=C(CSc1cnn[nH]1)Nc1cccc(C(F)(F)F)c1 [CBK269888] | 90.8% | 
COc1cccc(C(=O)Nc2ccc(-c3noc(-c4ccncc4)n3)cc2)c1 [CBK269892] | 93.4% | 
Cc1[nH]c2ccccc2c1C(=O)C(=O)Nc1ccc(C#N)cc1 [CBK269896] | 84.6% | 
COc1ccc(-c2noc(CNC(=O)Nc3ccccc3)n2)cc1OC [CBK269900] | 88.3% | 
Ic1cnn(Cc2nc(-c3ccccc3)no2)c1 [CBK269901] | 90.3% | 
CCN1CCN(c2ccc(C(=O)OC)cc2NC(=O)c2ccccc2C)CC1 [CBK269902] | 92.9% | 
O=C(CSc1cnn[nH]1)Nc1ccccc1F [CBK269903] | 101% | 
Cc1ccccc1-c1nc2ccc(NC(=O)CCC(=O)O)cc2o1 [CBK269904] | 93.4% | 
COc1ccc(OCCn2c(C(C)O)nc3ccccc32)cc1 (centres unmarked) [CBK269905] | 93.2% | 
NC1=Nc2nc3ccccc3n2C(c2ccc3c(c2)OCO3)N1 (centres unmarked) [CBK269906] | 85.7% | 
Cn1c(=O)[nH]c(=O)c2c1nc(CN1CCOCC1)n2CCc1ccccc1 [CBK269910] | 88% | 
CC(C(=O)NCCN1CCOCC1)N1c2cccc3cccc(c23)S1(=O)=O (centres unmarked) [CBK269911] | 91.2% | 
Cc1cccnc1NC(=O)C1CCCN1S(=O)(=O)c1ccc(Cl)cc1 (centres unmarked) [CBK269914] | 83.2% | 
O=C(NCCc1cccs1)Nc1ccccc1 [CBK269917] | 88.7% | 
O=c1[nH]c(CN2CCN(c3ncccn3)CC2)nc2ccccc12 [CBK269918] | 98.3% | 
CC(=O)Nc1ccc(NC(=O)CC2SCCNC2=O)cc1 (centres unmarked) [CBK269921] | 89.6% | 
CCOC(=O)CC1C(=O)NCCN1C/C=C/c1ccccc1 (centres unmarked) [CBK269922] | 90.7% | 

SMILES | viability at 28.5 h, 10 µM | viability at 28.5 h, 10 µM (bulk resorufin, single well)
COc1ccc(C(=O)Nc2ccccc2C(=O)N2CCOCC2)cc1Br [CBK269923] | 85.4% | 
CCOc1c(OC)cc(C#N)cc1C(=O)O [CBK269925] | 87.3% | 
CCOc1ccc(N2C(=O)CC(N3CCN(CCc4ccncc4)CC3)C2=O)cc1 (centres unmarked) [CBK269930] | 106% | 
N#Cc1ccc(NC(=O)CSc2cnn[nH]2)cc1 [CBK269931] | 87.7% | 
Cc1nn(Cc2cccc3ccccc23)c(C)c1NC(=O)c1ccccn1 [CBK269936] | 105% | 
COc1ccc(Cl)cc1NS(=O)(=O)N1CCOCC1 [CBK269937] | 93% | 
O=C(NCCCn1ccnc1)c1cccnc1-c1nc2ccccc2s1 [CBK269939] | 90.5% | 
CC(C)(Oc1ccc(Cl)cc1)C(=O)Nc1ccc(CN2CCOCC2)cc1 [CBK269940] | 89.1% | 
O=C(O)CCCn1cc(NC(=O)c2c(F)cccc2F)cn1 [CBK269941] | 86.6% | 
CC(Oc1ccc(S(=O)(=O)N2CCN(C)CC2)cc1)C(=O)NC1CCCCC1 (centres unmarked) [CBK269943] | 97.9% | 
O=C(NCCCN1CCOCC1)C1CCCN1S(=O)(=O)c1ccc(Cl)cc1 (centres unmarked) [CBK269944] | 92.1% | 
Cc1cc(NS(=O)(=O)N2CCCCC2)no1 [CBK269947] | 100% | 
O=C(Nc1ccccc1N1CCN(C(=O)c2ccccc2)CC1)c1cccnc1 [CBK269948] | 100% | 
CSc1nnc(C(N)Cc2c[nH]c3ccccc23)o1 (centres unmarked) [CBK269950C] |  | 89.8%
COc1ccccc1-c1nnc(SCc2cccc(C(=O)O)c2)[nH]1 [CBK269952] | 85.3% | 
O=C(O)CC1C(=O)NCCN1Cc1cccc(C(F)(F)F)c1 (centres unmarked) [CBK269958] | 91.1% | 
Cc1cccc(OC(C)C(=O)Nc2ccccc2C(=O)N2CCCCC2)c1 (centres unmarked) [CBK269960] | 85.4% | 
c1ccc(-c2nnc(CSc3nnc(-c4ccncc4)[nH]3)o2)cc1 [CBK269962] | 94.9% | 
O=C(Nc1cccnc1)c1ccc(NC(=O)C2OCCc3ccccc32)cc1 (centres unmarked) [CBK269963] | 86.6% | 
NC(CCc1nc2ccccc2[nH]1)c1nc2ccccc2[nH]1 (centres unmarked) [CBK269970] | 96.2% | 
COc1ccccc1NC(=O)Cn1nc(-c2ccc(C)cc2)ccc1=O [CBK269974] | 93.1% | 
O=C(COc1ccc2c(c1)OCO2)N1CCN(Cc2ccccc2)CC1 [CBK269977] | 84.8% | 
CC1(C)CC(=O)C2=C(C1)N=C(Nc1nc3ccccc3o1)NC2c1ccccn1 (centres unmarked) [CBK269978] | 88.8% | 

SMILES | viability at 28.5 h, 10 µM | viability at 28.5 h, 10 µM (bulk resorufin, single well)
O=C(O)Cc1ccc(NS(=O)(=O)c2ccc(F)cc2)cc1 [CBK269981] | 94.2% | 
Nc1cc(=O)[nH]c(=O)n1CCc1ccccc1 [CBK269984] | 86% | 
COc1ccc(CN2CCNC(=O)C2CC(=O)O)cc1OC (centres unmarked) [CBK269991] | 102% | 
COc1ccc(C)c(NC(=O)NCCc2c[nH]cn2)c1 [CBK269992] | 88.8% | 
O=C(Nc1ccc(Cl)cc1C(=O)O)c1ccccc1 [CBK269993] | 87.5% | 
CCOc1ccc(Cl)cc1S(=O)(=O)NCCO [CBK269996] | 94% | 
COc1ccc(Cl)cc1S(=O)(=O)N1CCC(C(=O)NCCO)CC1 [CBK270002] | 84% | 
c1ccc(-c2nnc(SCc3nnc(-c4ccccc4)o3)[nH]2)cc1 [CBK270003] | 104% | 
CCOc1ccccc1NC(=O)CSc1c[nH]nn1 [CBK270005] | 83.3% | 
O=C(Nc1ccccc1N1CCOCC1)c1cccc(OCc2ccccc2)c1 [CBK270011] | 104% | 
COc1cc(NC(=O)CC2NC3CCCCC3NC2=O)cc(OC)c1OC (centres unmarked) [CBK270012] | 84.5% | 
COc1cc(CNCCO)ccc1OCc1cccc(Cl)c1 [CBK270013C] | 94.5% | 
O=C(Nc1ccc(S(=O)(=O)NCCN2CCOCC2)cc1)N1CCCC1 [CBK270015] | 89.8% | 
O=C(Nc1ccc(Cl)c(C(=O)O)c1)c1cccc(-n2cnnc2)c1 [CBK270016] | 86.5% | 
Cc1nnc(SCc2cc(=O)[nH]c(N3CCN(c4ccccc4F)CC3)n2)s1 [CBK270017] | 97.8% | 
COc1ccc(C(=O)NCCCc2nc3ccccc3[nH]2)cc1OC [CBK270018] | 101% | 
COc1cccc(NC(=O)NCCc2ccncc2)c1 [CBK270022] | 90.3% | 
CC1(C)CC(=O)C2=C(C1)NC(Nc1nc3ccccc3s1)=NC2c1cccnc1 (centres unmarked) [CBK270025] | 99.4% | 
Cc1cc(S(=O)(=O)N2CCCC2)ccc1OCC(=O)NCc1ccccn1 [CBK270027] | 96% | 
Cc1ccc(NC(=O)CN2C(=O)c3ccccc3C2=O)c(O)c1 [CBK270028] | 88.2% | 
Nc1nc(/C=C/c2cccs2)nc(-c2ccccc2O)n1 [CBK270033] | 105% | 
O=C(Nc1ccc(N2CCN(C(=O)c3ccco3)CC2)cc1)c1cccnc1 [CBK270034] | 102% | 
Cn1c(=O)[nH]c(=O)c2c1nc(CN1CCOCC1)n2Cc1ccc(F)cc1 [CBK270040] | 99.2% | 

SMILES | viability at 28.5 h, 10 µM | viability at 28.5 h, 10 µM (bulk resorufin, single well)
COc1ccc(CC(=O)NCc2nc(-c3ccc(OC)cc3)no2)cc1 [CBK270043] | 92% | 
OCCN1CCN(c2nnc(-c3ccccc3)cc2-c2ccccc2)CC1 [CBK270045] | 86.2% | 
O=C(c1cccnc1)N1CCN(C2CC(=O)N(c3ccc(F)cc3)C2=O)CC1 (centres unmarked) [CBK270049] | 91.5% | 
Ic1cnn(Cc2nc(-c3ccc4c(c3)OCO4)no2)c1 [CBK270050] | 106% | 
O=C(Nc1ccc(C(=O)O)c(O)c1)c1ccc(Br)o1 [CBK270053] | 87% | 
CN1CCN(C(=O)c2ccccc2NC(=O)c2ccc(C(C)(C)C)cc2)CC1 [CBK270054] | 93.4% | 
O=C(CCn1cnc2ccccc2c1=O)Nc1ccccc1C(F)(F)F [CBK270056] | 101% | 
Nc1nnc(SCc2nc(=O)c3ccccc3[nH]2)s1 [CBK270059] | 92.2% | 
c1ccc(-c2nnc(-c3ccncc3)nc2-c2ccccc2)cc1 [CBK270061] | 81.1% | 
O=C(O)COc1ccc(NC(=O)C2CCCO2)cc1 (centres unmarked) [CBK270063] | 102% | 
CCc1ccc(Nc2nc(N)nc(CN3CCN(c4ccccn4)CC3)n2)cc1 [CBK270064] | 102% | 
CCOC(=O)CC1C(=O)NCCN1Cc1ccoc1 (centres unmarked) [CBK270066] | 92.4% | 
Cc1nn(-c2ccc(N3CCNCC3)nn2)c(=O)c2ccccc12 [CBK270067] | 88.1% | 
O=C(O)c1cccc(NS(=O)(=O)c2cccs2)c1 [CBK270068] | 59.5% | 
O=C(CSc1nnc(-c2ccncc2)s1)Nc1ccc(Cl)cc1 [CBK270069] | 87.9% | 
O=C(O)COc1cccc(NC(=O)c2cc3ccccc3o2)c1 [CBK270071] | 90.3% | 
CCOc1ccc(S(=O)(=O)N2CCC(C(=O)N3CCN(C)CC3)CC2)cc1 [CBK270075] | 88.8% | 
Cc1ccc(C(=O)Nc2ccccc2)cc1S(=O)(=O)N1CCN(C)CC1 [CBK270076] | 90.2% | 
O=C(Cn1c(=O)oc2ccccc21)Nc1ccc(N2CCOCC2)c(Cl)c1 [CBK270079] | 102% | 
Cn1nnnc1SCCNCc1ccc2c(c1)n(C)c(=O)n2C [CBK270080C] | 99.8% | 
COc1cc(-c2nc(C(C)=O)c(C)n2O)cc(OC)c1OC [CBK270083] | 95.6% | 
Cc1cccc(C)c1N1CCN(CC(O)COc2ccc3c(C)cc(=O)oc3c2)CC1 (centres unmarked) [CBK270084] | 91.2% | 
Cn1c(=O)[nH]c(=O)c2c1nc(CN1CCOCC1)n2Cc1c(F)cccc1Cl [CBK270085] | 90.5% | 
